Results taken from PubChem BioAssay (NCI).
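96-well plates; 48 h exposure; 5 concentrations. Endpoints by linear interpolation between flanking doses. Not reached: highest tested concentration assigned. TGI: concentration producing complete growth inhibition.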

Columns and labels:
Assay in all cases: DTP human tumour cell line panel, 48 h
SF-539 CNS = tested on: SF-539 CNS
NCI-H23 lung = tested on: NCI-H23 lung
SW-620 colon = tested on: SW-620 colon
OVCAR-3 ovarian = tested on: OVCAR-3 ovarian
RPMI-8226 leukemia = tested on: RPMI-8226 leukemia
CCRF-CEM leukemia = tested on: CCRF-CEM leukemia
OVCAR-5 ovarian = tested on: OVCAR-5 ovarian
OVCAR-4 ovarian = tested on: OVCAR-4 ovarian
786-0 renal = tested on: 786-0 renal
BT-549 breast = tested on: BT-549 breast
DU-145 prostate = tested on: DU-145 prostate
SR leukemia = tested on: SR leukemia
A549 NSCLC = tested on: A549 NSCLC
MDA-N = tested on: MDA-N
SF-268 CNS = tested on: SF-268 CNS
NCI-H460 lung = tested on: NCI-H460 lung
HOP-62 NSCLC = tested on: HOP-62 NSCLC
SN12C renal = tested on: SN12C renal
K-562 leukemia = tested on: K-562 leukemia
MDA-MB-231 breast = tested on: MDA-MB-231 breast

O=[N+]([O-])c1nccn1CCCNc1ccnc2cc(Cl)ccc12
TGI (SF-539 CNS): > 88.7 µM | TGI (NCI-H23 lung): > 100 µM | TGI (SW-620 colon): > 100 µM | TGI (OVCAR-3 ovarian): > 100 µM | TGI (RPMI-8226 leukemia): > 100 µM | TGI (CCRF-CEM leukemia): > 100 µM | TGI (OVCAR-5 ovarian): > 100 µM | TGI (OVCAR-4 ovarian): > 100 µM | TGI (786-0 renal): > 100 µM | TGI (BT-549 breast): > 100 µM | TGI (DU-145 prostate): > 100 µM | TGI (SR leukemia): > 75.3 µM | TGI (A549 NSCLC): > 100 µM | TGI (MDA-N): > 100 µM | TGI (SF-268 CNS): > 65.6 µM | TGI (NCI-H460 lung): > 12 µM | TGI (HOP-62 NSCLC): > 92.4 µM | TGI (SN12C renal): > 85.1 µM | TGI (K-562 leukemia): > 100 µM | TGI (MDA-MB-231 breast): > 100 µM

CC(C)(C)c1cc2c(OC/C=C/c3ccccc3)c(c1)Cc1cc(C(C#N)(OC/C=C/c3ccccc3)OC/C=C/c3ccccc3)cc(c1OC/C=C\c1ccccc1)Cc1cc(C(C)(C)C)cc(c1OC/C=C/c1ccccc1)Cc1cc(C(C#N)(OC/C=C\c3ccccc3)OC/C=C/c3ccccc3)cc(c1OC/C=C\c1ccccc1)C2 (stereo not given)
TGI (SF-539 CNS): > 100 µM | TGI (NCI-H23 lung): > 100 µM | TGI (SW-620 colon): > 100 µM | TGI (OVCAR-3 ovarian): > 100 µM | TGI (RPMI-8226 leukemia): > 100 µM | TGI (CCRF-CEM leukemia): > 100 µM | TGI (OVCAR-5 ovarian): > 100 µM | TGI (OVCAR-4 ovarian): > 100 µM | TGI (786-0 renal): > 100 µM | TGI (BT-549 breast): > 100 µM | TGI (DU-145 prostate): > 100 µM | TGI (SR leukemia): 49.3 µM | TGI (A549 NSCLC): > 100 µM | TGI (MDA-N): > 100 µM | TGI (SF-268 CNS): > 100 µM | TGI (NCI-H460 lung): > 100 µM | TGI (HOP-62 NSCLC): > 100 µM | TGI (SN12C renal): > 100 µM | TGI (K-562 leukemia): > 100 µM | TGI (MDA-MB-231 breast): > 100 µM

Cc1ccc(NC(Nc2ccc(C)cc2C)=C(/C=C(\Cl)[N+](=O)[O-])[N+](=O)[O-])c(C)c1
TGI (SF-539 CNS): 23.3 µM | TGI (NCI-H23 lung): 20.8 µM | TGI (SW-620 colon): 4.02 µM | TGI (OVCAR-3 ovarian): 8.7 µM | TGI (RPMI-8226 leukemia): 4.36 µM | TGI (CCRF-CEM leukemia): 1.72 µM | TGI (OVCAR-5 ovarian): 19.7 µM | TGI (OVCAR-4 ovarian): 12.9 µM | TGI (786-0 renal): 8.95 µM | TGI (BT-549 breast): 11.7 µM | TGI (DU-145 prostate): 33.2 µM | TGI (SR leukemia): 4.13 µM | TGI (A549 NSCLC): 35 µM | TGI (MDA-N): 10.9 µM | TGI (SF-268 CNS): 10.3 µM | TGI (NCI-H460 lung): 36.7 µM | TGI (HOP-62 NSCLC): 34.1 µM | TGI (SN12C renal): 14.4 µM | TGI (K-562 leukemia): 3.75 µM | TGI (MDA-MB-231 breast): 17.3 µM

CC1(/C=C/CCSc2ccccc2)CC(=O)C2CC1C2(C)C (stereo not given)
TGI (SF-539 CNS): 31.5 µM | TGI (NCI-H23 lung): > 100 µM | TGI (SW-620 colon): > 100 µM | TGI (OVCAR-3 ovarian): > 91.3 µM | TGI (RPMI-8226 leukemia): 18.8 µM | TGI (CCRF-CEM leukemia): 31 µM | TGI (OVCAR-5 ovarian): > 100 µM | TGI (OVCAR-4 ovarian): > 100 µM | TGI (786-0 renal): > 54.6 µM | TGI (BT-549 breast): 42.1 µM | TGI (DU-145 prostate): > 100 µM | TGI (SR leukemia): 16.9 µM | TGI (A549 NSCLC): > 100 µM | TGI (MDA-N): > 100 µM | TGI (SF-268 CNS): > 100 µM | TGI (NCI-H460 lung): 71.6 µM | TGI (HOP-62 NSCLC): > 100 µM | TGI (SN12C renal): 45.6 µM | TGI (K-562 leukemia): > 100 µM | TGI (MDA-MB-231 breast): > 100 µM

CS(=O)(=O)OCC1CN(S(C)(=O)=O)c2cc(O)ccc21 (stereo not given)
TGI (SF-539 CNS): 7 µM | TGI (NCI-H23 lung): 6.61 µM | TGI (SW-620 colon): 28.3 µM | TGI (OVCAR-3 ovarian): 8.27 µM | TGI (RPMI-8226 leukemia): 12.2 µM | TGI (CCRF-CEM leukemia): 5.76 µM | TGI (OVCAR-5 ovarian): 18.3 µM | TGI (OVCAR-4 ovarian): 7.65 µM | TGI (786-0 renal): 12 µM | TGI (BT-549 breast): 8.85 µM | TGI (DU-145 prostate): 10 µM | TGI (SR leukemia): > 100 µM | TGI (A549 NSCLC): 21.1 µM | TGI (MDA-N): 4.52 µM | TGI (SF-268 CNS): 13.5 µM | TGI (NCI-H460 lung): 10.5 µM | TGI (HOP-62 NSCLC): 7.01 µM | TGI (SN12C renal): 13.5 µM | TGI (K-562 leukemia): 10.3 µM | TGI (MDA-MB-231 breast): 6.8 µM

C[n+]1ccc(/C2=C3\C=CC(=N3)/C(c3cc[n+](C)cc3)=c3/cc/c([nH]3)=C(\c3cc[n+](C)cc3)C3=N/C(=C(/c4cc[n+](C)cc4)C4C=CC2N4)C=C3)cc1
TGI (SF-539 CNS): > 100 µM | TGI (NCI-H23 lung): > 100 µM | TGI (SW-620 colon): > 100 µM | TGI (OVCAR-3 ovarian): > 100 µM | TGI (RPMI-8226 leukemia): > 100 µM | TGI (CCRF-CEM leukemia): > 100 µM | TGI (OVCAR-5 ovarian): > 100 µM | TGI (OVCAR-4 ovarian): > 100 µM | TGI (786-0 renal): > 100 µM | TGI (BT-549 breast): > 100 µM | TGI (DU-145 prostate): > 100 µM | TGI (SR leukemia): > 32.9 µM | TGI (A549 NSCLC): > 100 µM | TGI (MDA-N): > 100 µM | TGI (SF-268 CNS): > 100 µM | TGI (NCI-H460 lung): > 100 µM | TGI (HOP-62 NSCLC): > 100 µM | TGI (SN12C renal): > 100 µM | TGI (K-562 leukemia): > 100 µM | TGI (MDA-MB-231 breast): > 100 µM

COc1ccc(C(=O)/C=C/c2ccc(O)c(O)c2)c(OC)c1
TGI (SF-539 CNS): 7.55 µM | TGI (NCI-H23 lung): 18.3 µM | TGI (SW-620 colon): > 63.8 µM | TGI (OVCAR-3 ovarian): 2.66 µM | TGI (RPMI-8226 leukemia): 15.8 µM | TGI (CCRF-CEM leukemia): > 32 µM | TGI (OVCAR-5 ovarian): 47.2 µM | TGI (OVCAR-4 ovarian): > 100 µM | TGI (786-0 renal): 44.3 µM | TGI (BT-549 breast): 20.4 µM | TGI (DU-145 prostate): 15.7 µM | TGI (SR leukemia): 6.54 µM | TGI (A549 NSCLC): 97.3 µM | TGI (MDA-N): > 46.2 µM | TGI (SF-268 CNS): > 52.6 µM | TGI (NCI-H460 lung): 15.9 µM | TGI (HOP-62 NSCLC): 60.3 µM | TGI (SN12C renal): 13.2 µM | TGI (K-562 leukemia): > 37.6 µM | TGI (MDA-MB-231 breast): 27.3 µM
